Reference: publication PMC11472310, “Distinctive Immune Signatures Driven by Structural Alterations in Desmuramylpeptide NOD2 Agonists” (Journal of Medicinal Chemistry, 2024)

Legend:
hNOD2 = molecular target: T1, hNOD2 (Homo sapiens, UniProt Q9HC29); assay: HEK-Blue NOD2 cell line reporter assay (NF-κB-inducible SEAP); format: cell-based; conditions: HEK-Blue NOD2 cells, 18 h, NF-κB transcriptional activity (SEAP); read-out: EC50 (nM), NOD2 agonistic activity
T1 construct: host or cells: HEK-Blue NOD2 cells (HEK293)
T1 sequence (Q9HC29 whole entry): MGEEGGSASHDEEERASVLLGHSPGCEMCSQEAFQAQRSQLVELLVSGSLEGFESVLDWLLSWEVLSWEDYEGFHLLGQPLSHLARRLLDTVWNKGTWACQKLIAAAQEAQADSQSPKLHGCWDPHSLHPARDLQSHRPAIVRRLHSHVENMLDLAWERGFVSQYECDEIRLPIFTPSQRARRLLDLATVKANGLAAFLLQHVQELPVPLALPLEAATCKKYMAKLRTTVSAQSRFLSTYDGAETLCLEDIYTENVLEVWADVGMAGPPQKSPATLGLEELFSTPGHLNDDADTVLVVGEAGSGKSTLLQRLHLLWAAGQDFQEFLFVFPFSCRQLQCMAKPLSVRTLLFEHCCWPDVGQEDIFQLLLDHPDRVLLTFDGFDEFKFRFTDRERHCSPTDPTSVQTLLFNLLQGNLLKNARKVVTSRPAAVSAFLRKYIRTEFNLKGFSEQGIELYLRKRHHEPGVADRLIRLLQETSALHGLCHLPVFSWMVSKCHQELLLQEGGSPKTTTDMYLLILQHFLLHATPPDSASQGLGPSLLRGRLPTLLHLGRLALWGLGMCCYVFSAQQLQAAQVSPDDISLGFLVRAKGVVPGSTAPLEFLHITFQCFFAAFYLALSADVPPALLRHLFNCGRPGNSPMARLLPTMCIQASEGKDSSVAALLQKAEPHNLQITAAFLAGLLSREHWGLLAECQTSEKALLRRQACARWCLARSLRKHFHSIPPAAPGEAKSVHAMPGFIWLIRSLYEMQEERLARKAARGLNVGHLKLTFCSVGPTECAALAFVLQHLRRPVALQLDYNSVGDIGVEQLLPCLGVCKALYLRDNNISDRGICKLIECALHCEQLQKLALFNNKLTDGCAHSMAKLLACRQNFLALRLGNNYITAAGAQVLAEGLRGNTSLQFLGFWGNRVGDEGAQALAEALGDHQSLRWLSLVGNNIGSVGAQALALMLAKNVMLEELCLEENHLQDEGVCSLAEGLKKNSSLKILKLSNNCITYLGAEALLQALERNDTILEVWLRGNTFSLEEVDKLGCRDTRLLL
Experimental: To assess the NOD2 agonistic potential of the synthesized desmuramylpeptides at a cellular level, we employed the HEK-Blue NOD2 cell line reporter assay, a validated and commercially available method. All synthesized compounds were evaluated for their dose-dependent activities to establish their EC50 values.
The HEK-Blue NOD1 and NOD2 cell line reporter assay was generated from HEK293 cells through cotransfection of the hNOD1 or hNOD2 gene, respectively, along with an NF-κB-inducible secreted embryonic alkaline phosphatase (SEAP) reporter gene. Upon activation of NOD1 or NOD2, NF-κB triggers the production of SEAP, which can be quantitatively measured colorimetrically. […] After 18 h of incubation at 37 °C with 5% CO2, SEAP activity was measured spectrophotometrically by absorbance at 630 nm (BioTek Synergy microplate reader; Winooski, VT, USA). EC50 values were determined using Prism software (version 9; GraphPad Software, CA, USA). Each experiment was conducted in duplicate and repeated in at least two independent biological replicates.

human PBMCs = assay: Cytokine release from peripheral blood mononuclear cells (LEGENDplex panel); format: cell-based; conditions: 18 h; for production of proinflammatory cytokines and chemokines including IL-6, IL-8 and MCP-1: 2 μM alone (no LPS)
Text: The immunomodulatory effects of the selected desmuramylpeptides were examined in human primary peripheral blood mononuclear cells (PBMCs). This diverse mixture of immune cells provided a platform to investigate the effects of these NOD2 agonists within a physiologically relevant environment, encompassing other NOD2-interacting and downstream signaling proteins. […] Given that NOD2 activation often modulates the Toll-like receptor (TLR)-induced cytokine responses, we investigated the impact of combining desmuramylpeptides with lipopolysaccharide (LPS), a well-known TLR4 agonist, on cytokine secretion.[76]−[78]
The elicited cytokine profiles thus broadly reflect the structure–activity relationships obtained in the reporter gene assays.
Peripheral blood mononuclear cells were plated at a density of 1 × 10^6 cells/mL in 48-well plates containing 500 μL of growth medium. Cells were then treated with the compounds (2 μM) or the corresponding vehicle (0.1% DMSO), both in the absence and presence of LPS (10 ng/mL). Following an 18 h incubation period at 37 °C with 5% CO2, cell-free supernatants were collected and stored at −80 °C until analysis. […] Standard curves were constructed using recombinant cytokines provided in the kit. Data analysis was performed using Biolegend software Qognit and Prism (GraphPad, San Diego, CA, USA) software. The experiments were independently replicated four times. Statistical significance was determined using two-way analysis of variance (ANOVA) followed by Tukey’s multiple comparisons test.

K562 cancer cells = assay: PBMC cytotoxicity against K562 cancer cells (flow cytometry); format: cell-based; conditions: for cytotoxicity of PBMCs against K562 cells, cotreatment with LPS (relative to negative control) / Cytotoxicity (ratio to control), + LPS: 10 μM + LPS 1 μg/mL; for cytotoxicity of PBMCs against K562 cells, cotreatment with LPS (relative to negative control) / enhancement of cytotoxicity of PBMCs against K562 cells (relative to negative control): 18 h, then 4 h coincubation; for cytotoxicity of PBMCs against K562 cells, cotreatment with LPS (relative to negative control): 40:1; for Cytotoxicity (ratio to control), + LPS / Cytotoxicity (ratio to control): Table S2; for Cytotoxicity (ratio to control) / enhancement of cytotoxicity of PBMCs against K562 cells (relative to negative control): alone: compounds 10 μM, LPS 1 μg/mL, IL-2 200 U/mL; for enhancement of cytotoxicity of PBMCs against K562 cells (relative to negative control): effector:target 40:1
Experimental: In this study, we investigated the potential of desmuramylpeptides, both alone and in combination with LPS, to enhance the cytotoxic activity of PBMCs against cancer cells employing a flow-cytometry-based cytotoxicity assay based on coincubation of preactivated PBMCs with fluorescently labeled K562 cancer cells.[82] Among the diverse subpopulations within PBMCs, natural killer (NK) cells play a pivotal role in detecting and eliminating cancer cells. NOD2-mediated NK cell activity against cancer cells arises from both direct NOD2 agonist elicited cytolytic activity of NK cells[83] and indirect activation through cytokine release by other NOD2-responsive cells, such as monocytes, which comprise approximately 10% of PBMCs; such interactions potentially reinforce the immune response.[84] […] To that end, we utilized the entire PBMC population as effector cells rather than isolated NK cells, to mimic conditions more closely resembling the in vivo environment while K562 chronic myelogenous leukemia cells were used as the target cells in a 40:1 effector to target cell ratio.[87]
(§1) The PBMC cytotoxicity assays utilizing K562 cells were conducted following previously established methods, with some adjustments.[82] […] Meanwhile, K562 cells were stained with CFSE (Invitrogen, Carlsbad, CA, USA), washed twice with complete medium, and then added (1 × 10^4 cells per well) to the pretreated PBMCs to achieve a final effector cell to target tumor cell ratio of 40:1. Following a 4-h coincubation period at 37 °C with 5% CO2, cells were stained with Sytox blue dead cell stain (Invitrogen) and analyzed using an Attune NxT flow cytometer (Thermo Fisher Scientific, Waltham, MA, USA) along with FlowJo software (Tree Star, Inc., Ashland, OR, USA). Cells positive for both CFSE and Sytox blue were designated as dead K562 cells. PBMCs alone and CFSE-labeled cancer cells alone were also exposed to the compounds at equivalent concentrations and stained with Sytox blue to assess any direct cytotoxic effects of the compounds on PBMCs and cancer cells separately. Each experiment was conducted in duplicate and repeated in three independent biological replicates. Statistical analysis was performed using one-way ANOVA followed by Dunnett’s multiple comparisons test.

PBMCs = assay: Direct cytotoxic effect of compounds on PBMCs (Sytox blue); format: cell-based
Experimental: Additionally, PBMCs and cancer cells alone were treated with desmuramylpeptides to assess any direct cytotoxic effects on these cells.
as §1

[1] = system: human blood monocyte subsets; assay: Monocyte conversion assay in PBMCs (CD14/CD16 flow cytometry); format: cell-based; conditions: 10 μM, 18 h, NT 19.5%
Text: Engagement of NOD2 has been reported to increase the levels of an anti-inflammatory monocyte subset, denoted as patrolling monocytes (CD14^–, CD16^+2), thus exerting a counterintuitive role in inflammatory processes, while concomitantly increasing the levels of total blood monocytes (released from bone marrow).[18] […] This process involves a transition from the inflammatory monocytes, typified by CD14^+CD16^–, through an intermediate subset of CD14^+CD16^+ monocytes. […] To recapitulate this phenomenon, we modified the reported procedure and employed PBMCs in lieu of isolated monocytes. Identification of human blood monocyte subsets was achieved through flow cytometry, utilizing the expression of CD14 and CD16 markers as distinguishing criteria. […] Similar to what has been reported (e.g., inactivity of murabutide),[18] also in our case not all NOD2 agonists were equally endowed with the ability to generate patrolling monocytes.
The monocyte conversion assay was conducted following previously established methods, with some adjustments.[18] Peripheral blood mononuclear cells were plated at a density of 3 × 10^6 cells/mL in 24-well plates containing 700 μL of growth medium. Cells were then treated with MDP and desmuramylpeptides (10 μM) or the corresponding vehicle (0.1% DMSO). Following an incubation period at 37 °C with 5% CO2, cells were transferred to 1.5 mL tube using phosphate-buffered saline (PBS) and scraper. The cells were blocked with human TruStain Fcx (BioLegend) and stained using antihuman CD16 antibodies/Alexa Fluor 488 (BioLegend); antihuman CD14 antibodies/PE-Cy7 (BioLegend); antihuman HLA-DR antibodies/APC-Fire750 (BioLegend) and blocked with TrueStain Monocyte Blocker. A viability dye Helix NP Blue (BioLegend) was added to the previous panel to discriminate live cells. PBMC were analyzed using an Attune NxT flow cytometer (Thermo Fisher Scientific, Waltham, MA, USA) and the FlowJo software (Tree Star, Inc., Ashland, OR, USA). Initially, lymphocytes (CD14^–, CD16^–) and NK (CD16^–, HLA-DR^–) were eliminated, after which classical, intermediate and nonclassical monocytes were specifically identified by selective gating strategy as follows: CD14^+ CD16^– (classical), CD14^+ CD16^+ (intermediate) and CD14^– CD16^+ (nonclassical). Each experiment was conducted in duplicate and repeated in three independent biological replicates.

[2] = system: CD4+ T cells cocultured with BMDCs; assay: BMDC antigen presentation to ovalbumin-specific CD4+ T cells (OT II); format: cell-based, C57BL/6 mouse; conditions: BMDCs pretreated 10 μM + ovalbumin 50 μg/mL 18 h, coculture 72 h; OVA-treated cells 63.8%
Experimental: (§2) For this study, we narrowed down the selection of suitable desmuramylpeptides even further. In order to assess the adjuvant potential of selected desmuramylpeptides with regard to their effect on DC-mediated activation of CD4^+ and CD8^+ T cells, we conducted an ex vivo antigen-presentation assay utilizing C57BL/6 mouse bone marrow-derived DCs (BMDCs). Upon stimulation with desmuramylpeptides at 10 μM, in conjunction with ovalbumin soluble protein (50 μg/mL), BMDCs were cocultured with carboxyfluorescein succinimidyl ester (CFSE)-labeled naïve ovalbumin-specific CD4^+ or CD8^+ T cells, which were isolated from splenocytes of OT II and OT I transgenic mice, respectively. […] Additionally, we investigated how the priming of T cells elicited by the tested compounds impacted the cytokine profiles secreted in BMDC/T-cell cocultures.
(§3) CD4^+ and CD8^+ T cells were isolated from splenocytes of OT II and OT I transgenic mice using CD4^+ and CD8^+ T cell isolation kits (Miltenyi Biotec, Germany) following the manufacturer’s instructions. The purified T cells were labeled with CFSE (Invitrogen, Carlsbad, CA, USA) and subsequently washed. Next, 5 × 10^4 T cells were combined with 1 × 10^4 BMDCs/well (pretreated with desmuramylpeptides at 10 μM and 50 μg/mL ovalbumin [Invivogen, San Diego, CA, USA] for 18 h and then washed). Following a 72-h incubation period at 37 °C with 5% CO2, supernatants were harvested and stored at −80 °C for cytokine analysis. The cells were then stained with Fixable viability dye eFluor 780 (eBioscience, Thermo Fisher Scientific, MA, USA), anti-Thy1.2-PE-Cy7 antibodies (Biolegend, San Diego, CA, USA), anti-CD8-eFluor450 antibodies (eBioscience), anti-CD4-eFluor450 antibodies (eBioscience), and anti-CD25-APC antibodies (Biolegend) before analysis using a Beckman Coulter Cytoflex S flow cytometer (CA, USA) and FlowJo software (Tree Star, Inc., Ashland, OR, USA). Live Thy1.2+/CD4+ and Thy1.2+/CD8+ cells were assessed for CFSE dilution and CD25 expression. Each experiment was performed in duplicate and repeated in two independent biological replicates. Statistical significance was determined using paired t tests.

BMDC/T-cell cocultures = assay: T cell cytokine release in BMDC/T-cell cocultures; format: cell-based, C57BL/6 mouse; conditions: 10 μM, 72 h coculture
Experimental: as §2
Following 72 h of coincubation with BMDCs (pretreated with desmuramylpeptides [10 μM] and washed), supernatants from CD4^+ and CD8^+ T cells were harvested as previously described. […] Standard curves were constructed using recombinant cytokines provided in the kit. Data analysis was conducted using FlowJo (Tree Star, Inc., Ashland, OR, USA) and Prism (GraphPad, San Diego, CA, USA) software. Each experiment was performed in duplicate and replicated in two independent biological runs.

[3] = system: CD8+ T cells cocultured with BMDCs; assay: BMDC antigen cross-presentation to ovalbumin-specific CD8+ T cells (OT I); format: cell-based, C57BL/6 mouse; conditions: BMDCs pretreated 10 μM + ovalbumin 50 μg/mL 18 h, coculture 72 h; OVA-treated cells 23.3%
Experimental: as §2
as §3, with “Each experiment was performed in duplicate and repeated in two independent biological replicates.” left out

[4] = Table S2, alone: compounds 10 μM, LPS 1 μg/mL, IL-2 200 U/mL

| Compound | EC50 (hNOD2) [nM] | levels of LPS-induced IL-10 (human PBMCs; 2 μM + LPS 10 ng/mL) | production of proinflammatory cytokines and chemokines including IL-6, IL-8 and MCP-1 (human PBMCs) | cytotoxicity of PBMCs against K562 cells, cotreatment with LPS (relative to negative control) (K562 cancer cells) [fold] | Cytotoxicity (ratio to control), + LPS (K562 cancer cells) | Cytotoxicity (ratio to control) (K562 cancer cells) | enhancement of cytotoxicity of PBMCs against K562 cells (relative to negative control) (K562 cancer cells) | Percent of dead PBMCs (PBMCs; human, 18 h, 10 μM) | Percent of dead PBMCs, + LPS (PBMCs; human, 18 h, 10 μM) | levels of nonclassical monocytes [1] [%] | amounts of IL-1β, IL-6, IL-10, TNF-α and IFN-γ compared to the MDP/LPS combination (human PBMCs; 2 μM + LPS 10 ng/mL) | levels of secreted MCP-1 compared to the MDP/LPS combination (human PBMCs; 2 μM + LPS 10 ng/mL) | Percent of dead PBMCs, + LPS (PBMCs; Table S2, 10 μM + LPS 1 μg/mL) | Percent of dead PBMCs (PBMCs; [4]) | fraction of activated and proliferating CD4+ T-cells (CD25+, CFSE low) [2] [%] | levels of IL-6 and TNF-α secreted by CD4+ T cells (BMDC/T-cell cocultures) | fraction of activated and proliferating CD8+ T-cells (CD25+, CFSE low) [3] [%] |
| --- | --- | --- | --- | --- | --- | --- | --- | --- | --- | --- | --- | --- | --- | --- | --- | --- | --- |
| CC(=O)N[C@H]1C(O)O[C@H](CO)[C@@H](O)[C@@H]1O[C@H](C)C(=O)N[C@@H](C)C(=O)N[C@H](CCC(=O)O)C(N)=O (mixture of isomers) [MDP, muramyl dipeptide, reference compound] | 205 ± 64 | amplified | minor increases | 2.71 | 2.71 ± 0.16 | 1.17 ± 0.07 | no activity | 1.11% ± 0.15% | 7.95% ± 0.95% | 31.5 | – | – | – | – | – | – | – |
| CCOC(=O)[C@@H](CCC(=O)NC12C[C@H]3C[C@@H](C1)C[C@@H](C2)C3)NC(=O)[C@@H](NC(=O)CNC(=O)/C=C/c1ccc(O)c(OC)c1)C(C)C [Compound 28, Ethyl N^5-((3S,5S,7S)-Adamantan-1-yl)-N^2-((E)-3-(4-hydroxy-3-methoxyphenyl)acryloyl)glycyl-L-valyl-D-glutaminate] | > 10000 | opposite | smaller increases | 2.19 | 2.19 ± 0.07 | 0.91 ± 0.02 | devoid of the capacity to induce cytotoxicity | – | – | – | lesser amounts | on par | 10.44% ± 0.63% | 0.99% ± 0.21% | 67.0 | slightly increased | – |
| lipopolysaccharide [LPS, reference compound] | – | – | – | – | – | 1.8 ± 0.08 | 1.80 fold | – | – | – | – | – | – | 4.16% ± 0.47 | 80.4 | – | 55.6 |
